Laboratory results published in patent US20230310444A1, “COMPOSITIONS AND METHODS FOR TREATING DISEASES AND DISORDERS” (Curis, Inc., priority 2020, published 2023).
“Also recorded” adds a separate entry of the source. Read-outs that look alike come from different tables or passages of the source.

How the values were obtained:
[1] = tested on: resistant or refractory, advanced NHL; assay: Phase I dose escalation trial of Compound 1 oral monotherapy in NHL (NCT03328078); format: in vivo, human
Protocol: Seven dosing cohorts included 50 and 100 mg QD, and 50, 100, 200, 300, or 400 mg BID of daily continuous oral monotherapy in 21-Day cycles. Objective included safety and tolerance (primary), pk/pd and early efficacy (secondary), and biomarker correlations (exploratory). 31 patients with resistant or refractory, advanced NHL have been enrolled.

[2] = tested on: WM; format: in vivo, human
Protocol: The patient remained asymptomatic for over 4 years with a slow increase in m-protein and IgM during that time. By mid-2017 they started to experience increased fatigue. […] There was no evidence of CXCR4 genomic alteration. […] Several options were discussed including clinical trials and standard of care Bruton’s tyrosine kinase inhibitor (BTKi) therapy.
Baseline testing in December 2018 included a bone marrow biopsy showing 5-10% involvement by WM, m-protein of 1.66 g/dL, IgM 2,801 mg/dL, and a computed tomography scan without pathological lymphadenopathy or hepatosplenomegaly. Quantitative immunoglobulins and serum protein electrophoresis were obtained each cycle to determine response to treatment (FIG. 1).
The patient initiated treatment at the first dose level, 50 mg. […] Using a standard 3+3 design the subsequent dose level, 100 mg po BID, was cleared per protocol. Considering evidence of response without noted toxicity, the patient was a candidate to escalate to 100 mg po BID starting with cycle 7 day 1 in April 2019. […] They reported a significant improvement in their quality of life with resolution of fatigue and returned to a rigorous daily exercise program that they had been unable to perform for the last 2 years due to WM-related symptoms. In August 2019 they were noted to have an asymptomatic grade 2 creatine phosphokinase (CPK) elevation, extensive work-up and physical exam was unrevealing. […] During cycles 15 through 20, while on the 200 mg po BID dose, the patient’s IgM plateaued around 1500 mg/dL and m-protein plateaued near 0.9 g/dL. Based on evolving safety data at higher dose levels, the patient was escalated to […] starting with cycle 20 in 1/2020.

[3] = 200 mg po BID, cycles 15 through 20

Cc1cc(-c2nc(C(=O)Nc3cc4oc(N5CCOCC5)nc4nc3N3CC[C@@H](O)C3)co2)ccn1 [Compound 1]
safety and tolerance overall ([1]; 50 mg QD to 400 mg BID): well tolerated; also recorded: good safety and tolerance | Anemia, Grade 3 or Higher ([1]; 200 mg BID N=5): 0 n (%) [E] | Thrombocytopenia, All Grades ([1]; 200 mg BID N=5): 0 n (%) [E] | Thrombocytopenia, Grade 3 or Higher ([1]; 200 mg BID N=5): 0 n (%) [E] | Anemia, Grade 3 or Higher ([1]; 300 mg BID N=6): 0 n (%) [E] | Thrombocytopenia, All Grades ([1]; 300 mg BID N=6): 0 n (%) [E] | Thrombocytopenia, Grade 3 or Higher ([1]; 300 mg BID N=6): 0 n (%) [E] | Neutropenia, Grade 3 or Higher ([1]; 400 mg BID N=8): 0 n (%) [E] | Tumor Reduction ([1]; DLBCL (transformed MZL), initial 50 mg qd, final 50 mg qd): 24% | Tumor Reduction ([1]; DLBCL-ABC, initial 400 mg bid, final 400 mg bid): 42% | Tumor Reduction ([1]; DLBCL, initial 50 mg bid, final 50 mg bid): 11% | Tumor Reduction ([1]; FL, initial 100 mg qd, final 50 mg qd): 49% | Tumor Reduction ([1]; LPL, initial 200 mg bid, final 300 mg bid *): 20% | Tumor Reduction ([1]; MALT/MZL, initial 400 mg bid, final 300 mg bid*): 25% | Tumor Reduction ([1]; MZL, initial 400 mg bid, final 400 mg bid): 5% | Tumor Reduction ([1]; WM, initial 50 mg bid, final 300 mg bid *): 66% | pharmacodynamic changes, cytokines ([1]; in vivo): cytokine reductions | pharmacokinetics, exposure versus dose ([1]; in vivo): dose-proportional increases in exposure | clinical activity ([1]; summary): preliminary clinical activity | pharmacokinetic properties ([1]; summary): desirable pharmacokinetic properties | disease control ([1]; treatment duration between < 1 and 18+ months): sustained disease control | IgM ([2]; 50 mg, cycle 6 day 1): 2639 mg/dL | IgM ([2]; 50 mg, during first 2 cycles, baseline 2801 mg/dL): 2866 mg/dL | m-protein ([2]; 50 mg, first six 21-day cycles, baseline 1.66 g/dL): 1.55 g/dL | response ([2]; 100 mg po BID, cycles 7 and 8): stable disease (SD) | IgM plateau [2, 3]: around 1500 mg/dL | m-protein plateau [2, 3]: ~0.9 g/dL | IgM ([2]; 300 g po BID from cycle 20, C22 day 1): 1241 mg/dL | m-protein ([2]; after 100 mg po BID cycles 7-8, prior to 200 mg BID escalation): 1.37 g/dL | m-protein ([2]; from cycle 20, C22 day 1): 0.68 g/dL
